In ChEMBL document CHEMBL3400149, “Discovery of novel spiro 1,3,4-thiadiazolines as potent, orally bioavailable and brain penetrant KSP inhibitors” (Bioorg Med Chem, 2015):
Calls of active or inactive are those of the source. No cut-off for these calls is given here.

Assays:
[1] = biological target: T1, Kinesin-like protein KIF11 (Homo sapiens, UniProt P52732); experiment: Inhibition of KSP in human HCT116 cells assessed as phos-histone H3 level by immunofluorescent assay; type: cell-based, HCT-116
T1 sequence (P52732 whole entry): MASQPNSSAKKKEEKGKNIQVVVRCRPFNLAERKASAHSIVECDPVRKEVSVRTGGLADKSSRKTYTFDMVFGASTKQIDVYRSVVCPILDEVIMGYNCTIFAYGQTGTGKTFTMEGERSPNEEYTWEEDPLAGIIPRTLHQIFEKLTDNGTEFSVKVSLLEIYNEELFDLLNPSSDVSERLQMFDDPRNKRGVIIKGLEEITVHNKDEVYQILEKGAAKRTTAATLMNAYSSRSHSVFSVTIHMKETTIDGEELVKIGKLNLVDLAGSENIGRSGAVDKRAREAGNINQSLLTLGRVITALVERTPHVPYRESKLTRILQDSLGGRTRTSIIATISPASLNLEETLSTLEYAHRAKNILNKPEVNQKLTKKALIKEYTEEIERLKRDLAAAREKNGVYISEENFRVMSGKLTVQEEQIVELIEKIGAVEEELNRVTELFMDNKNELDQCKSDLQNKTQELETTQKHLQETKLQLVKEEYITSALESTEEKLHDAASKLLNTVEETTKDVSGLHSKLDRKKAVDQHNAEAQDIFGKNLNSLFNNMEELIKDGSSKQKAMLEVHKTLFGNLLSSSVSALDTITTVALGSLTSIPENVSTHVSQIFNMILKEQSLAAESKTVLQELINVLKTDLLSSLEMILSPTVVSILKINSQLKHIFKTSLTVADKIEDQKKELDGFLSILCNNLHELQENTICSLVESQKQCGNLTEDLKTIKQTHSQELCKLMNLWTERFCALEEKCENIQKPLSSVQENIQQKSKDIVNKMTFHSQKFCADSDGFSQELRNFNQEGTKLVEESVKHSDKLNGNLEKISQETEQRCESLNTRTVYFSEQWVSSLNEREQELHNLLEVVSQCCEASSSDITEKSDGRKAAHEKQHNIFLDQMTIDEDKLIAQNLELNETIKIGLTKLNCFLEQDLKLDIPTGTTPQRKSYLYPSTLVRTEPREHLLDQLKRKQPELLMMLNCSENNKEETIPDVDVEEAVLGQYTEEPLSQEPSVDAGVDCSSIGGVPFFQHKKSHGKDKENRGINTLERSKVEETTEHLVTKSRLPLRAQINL

HCT-116 [2] = experiment: Induction of mitotic arrest in human HCT116 cells assessed as increase mitosis at 1.6 nM after 24 hrs by propidium iodine staining based FACS analysis; type: functional, cell-based
HCT-116 [3] = experiment: Induction of mitotic arrest in human HCT116 cells assessed as increase in 4N DNA content at 1.6 nM after 16 hrs by propidium iodine staining based FACS analysis; type: functional
HCT-116 [4] = experiment: Induction of mitotic arrest in human HCT116 cells assessed as increase in […] spindle formation at 6.25 nM after 16 hrs by propidium iodine staining based FACS analysis; type: functional, cell-based
[5] = AUC in CD1 mouse at 5 mg/kg, iv; type: ADME, organism-based; design: dose 5 mg/kg, route intravenous; details: plasma
[6] = AUC in Sprague-Dawley rat at 1 mg/kg, iv; type: ADME, organism-based; design: dose 1 mg/kg, route intravenous; details: plasma
[7] = AUC in beagle dog at 1 mg/kg, iv; type: ADME, organism-based, Canis lupus familiaris; design: dose 1 mg/kg, route intravenous; details: plasma
[8] = Clearance in CD1 mouse at 5 mg/kg, iv; type: ADME, organism-based; design: dose 5 mg/kg, route intravenous; details: in vivo
[9] = Clearance in Sprague-Dawley rat at 1 mg/kg, iv; type: ADME, organism-based; design: dose 1 mg/kg, route intravenous; details: in vivo
[10] = Clearance in beagle dog at 1 mg/kg, iv; type: ADME, organism-based, Canis lupus familiaris; design: dose 1 mg/kg, route intravenous; details: in vivo
[11] = Volume of distribution at steady state in CD1 mouse at 5 mg/kg, iv; type: ADME, organism-based; design: dose 5 mg/kg, route intravenous; details: in vivo, read-out: Vdss
[12] = Volume of distribution at steady state in Sprague-Dawley rat at 1 mg/kg, iv; type: ADME, organism-based; design: dose 1 mg/kg, route intravenous; details: in vivo, read-out: Vdss
[13] = Volume of distribution at steady state in beagle dog at 1 mg/kg, iv; type: ADME, organism-based, Canis lupus familiaris; design: dose 1 mg/kg, route intravenous; details: in vivo, read-out: Vdss
[14] = Half life in CD1 mouse at 5 mg/kg, iv; type: ADME, organism-based; design: dose 5 mg/kg, route intravenous; details: in vivo
[15] = Half life in Sprague-Dawley rat at 1 mg/kg, iv; type: ADME, organism-based; design: dose 1 mg/kg, route intravenous; details: in vivo
[16] = Half life in beagle dog at 1 mg/kg, iv; type: ADME, organism-based, Canis lupus familiaris; design: dose 1 mg/kg, route intravenous; details: in vivo
[17] = AUC in CD1 mouse at 5 mg/kg, po; type: ADME, organism-based; design: dose 5 mg/kg, route oral; details: plasma
[18] = AUC in Sprague-Dawley rat at 50 mg/kg, po; type: ADME, organism-based; design: dose 50 mg/kg, route oral; details: plasma
[19] = AUC in beagle dog at 5 mg/kg, po; type: ADME, organism-based, Canis lupus familiaris; design: dose 5 mg/kg, route oral; details: plasma
[20] = Cmax in CD1 mouse at 5 mg/kg, po; type: ADME, organism-based; design: dose 5 mg/kg, route oral; details: in vivo
[21] = Cmax in Sprague-Dawley rat at 50 mg/kg, po; type: ADME, organism-based; design: dose 50 mg/kg, route oral; details: in vivo
[22] = Cmax in beagle dog at 5 mg/kg, po; type: ADME, organism-based, Canis lupus familiaris; design: dose 5 mg/kg, route oral; details: in vivo
[23] = Oral bioavailability in CD1 mouse at 5 mg/kg; type: ADME, organism-based; details: in vivo
[24] = Oral bioavailability in Sprague-Dawley rat at 50 mg/kg; type: ADME, organism-based; details: in vivo
[25] = Oral bioavailability in beagle dog at 5 mg/kg; type: ADME, organism-based, Canis lupus familiaris; details: in vivo
[26] = Retention time of the compound; type: physicochemical
[27] = AUC in CD1 mouse at 10 mg/kg, po; type: ADME, organism-based; design: dose 10 mg/kg, route oral; details: plasma
[28] = Cmax in CD1 mouse at 10 mg/kg, po; type: ADME, organism-based; design: dose 10 mg/kg, route oral; details: in vivo
[29] = Oral bioavailability in CD1 mouse at 10 mg/kg; type: ADME, organism-based; details: in vivo
[30] = AUC in Sprague-Dawley rat at 10 mg/kg, po; type: ADME, organism-based; design: dose 10 mg/kg, route oral; details: plasma
[31] = Cmax in Sprague-Dawley rat at 10 mg/kg, po; type: ADME, organism-based; design: dose 10 mg/kg, route oral; details: in vivo
[32] = Oral bioavailability in Sprague-Dawley rat at 10 mg/kg; type: ADME, organism-based; details: in vivo
[33] = AUC in beagle dog at 10 mg/kg, po; type: ADME, organism-based, Canis lupus familiaris; design: dose 10 mg/kg, route oral; details: plasma
[34] = Cmax in beagle dog at 10 mg/kg, po; type: ADME, organism-based, Canis lupus familiaris; design: dose 10 mg/kg, route oral; details: in vivo
[35] = Oral bioavailability in beagle dog at 10 mg/kg; type: ADME, organism-based, Canis lupus familiaris; details: in vivo
[36] = Permeability across apical to basolateral side in human Caco2 cells; type: ADME, cell-based; details: Caco-2, read-out: permeability
[37] = Permeability across basolateral to apical side in human Caco2 cells; type: ADME, cell-based; details: Caco-2, read-out: permeability
[38] = AUC ratio of drug uptake from brain to plasma in mouse; type: ADME, organism-based
[39] = AUC ratio of drug uptake from brain to plasma in rat; type: ADME
[40] = Antitumor activity against human COLO205 cells xenografted in mouse assessed as tumor growth inhibition at 5 mg/kg, po q3d measured on day 35; type: functional; details: COLO 205, 840 h
[41] = Antitumor activity against human COLO205 cells xenografted in mouse assessed as tumor growth inhibition at 7.5 mg/kg, po q3d measured on day 35; type: functional; details: COLO 205, 840 h
[42] = Antitumor activity against human U373 cells xenografted in mouse assessed as tumor growth inhibition at 5 mg/kg, po q3d measured on day 35; type: functional, U-373MG ATCC; details: 840 h
[43] = Antitumor activity against human U373 cells xenografted in mouse assessed as tumor growth inhibition at 7.5 mg/kg, po q3d measured on day 35; type: functional, U-373MG ATCC; details: 840 h
[44] = Oral bioavailability in monkey; type: ADME, organism-based, Macaca mulatta; details: rhesus monkey, in vivo

NCCCC(=O)N1N=C(c2cc(F)ccc2F)SC12CCOc1ccccc12 (stereo not drawn)
EC50 [1]: 338 nM

CC(=O)N1N=C(c2cc(F)ccc2F)S[C@@]12c1ccccc1OC[C@H]2CCN
EC50 [1]: 2 nM | Activity (HCT-116 [2]): Active | Activity (HCT-116 [3]): 70% | Activity (HCT-116 [4]): Active | AUC [5]: 2.3 µM·h | AUC [6]: 0.8 µM·h | AUC [7]: 3 µM·h | clearance [8]: 90 mL/min/kg | clearance [9]: 46 mL/min/kg | clearance [10]: 13.7 mL/min/kg | Vd [11]: 6.4 L/kg | Vd [12]: 8.6 L/kg | Vd [13]: 3.9 L/kg | half-life [14]: 1.8 h | half-life [15]: 2 h | half-life [16]: 3.9 h | AUC [17]: 0.3 µM·h | AUC [18]: 3.6 µM·h | AUC [19]: 1.4 µM·h | Cmax [20]: 100 nM | Cmax [21]: 600 nM | Cmax [22]: 300 nM | bioavailability [23]: 12% | bioavailability [24]: 9% | bioavailability [25]: 9% | Retention_time [26]: 4.08 min

CC(=O)N1N=C(c2cc(F)ccc2F)SC12CCOc1ccccc12 (stereo not drawn)
EC50 [1]: 139 nM

CC(=O)N1N=C(c2cc(F)ccc2F)S[C@@]12c1cc(F)ccc1OC[C@H]2CCN
EC50 [1]: 1 nM | AUC [5]: 2.6 µM·h | AUC [6]: 0.37 µM·h | clearance [8]: 76 mL/min/kg | clearance [9]: 109 mL/min/kg | AUC [27]: 3.3 µM·h | Cmax [28]: 770 nM | bioavailability [29]: 64% | AUC [30]: 0.15 µM·h | Cmax [31]: 17 nM | bioavailability [32]: 8%

O=C(CO)N1N=C(c2cc(F)ccc2F)SC12CCOc1ccccc12 (stereo not drawn)
EC50 [1]: 615 nM

NCC(=O)N1N=C(c2cc(F)ccc2F)SC12CCOc1ccccc12 (stereo not drawn)
EC50 [1]: > 1000 nM

CNCCCC(=O)N1N=C(c2cc(F)ccc2F)SC12CCOc1ccccc12 (stereo not drawn)
EC50 [1]: 367 nM

CC(=O)N1N=C(c2cc(F)ccc2F)SC12COc1ccccc12 (stereo not drawn)
EC50 [1]: 246 nM

NCCC(=O)N1N=C(c2cc(F)ccc2F)SC12CCOc1ccccc12 (stereo not drawn)
EC50 [1]: > 500 nM

CC(=O)N1N=C(c2cc(F)ccc2F)S[C@@]12c1cc(F)c(F)cc1OC[C@H]2CCN
EC50 [1]: 3 nM | AUC [5]: 4.6 µM·h | AUC [6]: 0.8 µM·h | AUC [7]: 3.1 µM·h | clearance [8]: 42 mL/min/kg | clearance [9]: 49 mL/min/kg | clearance [10]: 12 mL/min/kg | AUC [27]: 7.9 µM·h | Cmax [28]: 1030 nM | bioavailability [29]: 87% | AUC [30]: 2.5 µM·h | Cmax [31]: 220 nM | bioavailability [32]: 64% | AUC [33]: 6.9 µM·h | Cmax [34]: 500 nM | bioavailability [35]: 44% | Papp A→B [36]: 10.6 ×10⁻⁶ cm/s | Papp B→A [37]: 11.5 ×10⁻⁶ cm/s | Kp [38]: 4 | Kp [39]: 4 | inhibition in vivo at 5 mg/kg [40]: 116% | inhibition in vivo at 7.5 mg/kg [41]: 126% | inhibition in vivo at 5 mg/kg [42]: 31% | inhibition in vivo at 7.5 mg/kg [43]: 69% | bioavailability [44]: 53%

CC(=O)N1N=C(c2cc(F)ccc2F)SC12CCSc1ccccc12 (stereo not drawn)
EC50 [1]: 3310 nM

CN(C)CCCC(=O)N1N=C(c2cc(F)ccc2F)SC12CCOc1ccccc12 (stereo not drawn)
EC50 [1]: 263 nM

CC(=O)N1N=C(c2cc(F)ccc2F)S[C@]12c1ccccc1OC[C@H]2CCN
EC50 [1]: 205 nM | Retention_time [26]: 2.15 min
